The text below walks through data of patent US20060194235A1, “HLJ1 gene expression” (priority 2005, published 2006).

For one data set, the system named is HLJ1. In words: siRNA knock-down of endogenous HLJ1 in the YY1 transfected cell line PCY3. The class given is cell-based, human. The conditions noted are these: PCY3 cells. An excerpt:
Inhibiting the ability of transfected cells to express HLJ1 can restore their invasive capacity. Small inhibiting RNA (siRNA) specific for HLJ1 decreased the endogenous HLJ1 RNA level in the YY1 transfected cell line, PCY3.
Two siRNA sequences were synthesized according to standard protocols (68). The sequence of HLJ1-A was […]. The sequence of HLJ1-D was […]. HLJ1-A and HLJ1-D reduced its expression by 64%. […] A negative control, scrambled siRNA, had no significant effect on HLJ1 expression or invasive capacity.

In another data set the test system is PCY3 cells. In words: In vitro Matrigel invasion assay. In kind it is cell-based, human. Particulars: siRNA treated. How it is done:
The metastatic potential of tumors depends, in part, on the ability of the tumor cells to invade through a basement membrane and migrate to distant sites. The ability of cells transfected with HLJ1 to penetrate a Matrigel™ membrane using an in vitro assay, which is a modified Boyden chamber assay, as described in Example 15, was determined as an index of the metastatic potential of these cells. The YY1 transfectant PCY3, which expressed a high level of HLJ1, reduced cell invasion capability to about 56% and about 61% of the levels of CL1-0 and mock transfectants, respectively (68).
In vitro Matrigel™ invasion assays were performed in 6.5-mm transwell chambers (8 μm pore size; Costar®). The transwell filters in the chambers were coated with Matrigel™ (Becton Dickinson, Franklin Lakes, N.J.) (58). After a 16 or 24 h incubation, the filter was gently removed from the chamber, and the noninvasive cells on the upper surface were removed by wiping with a cotton swab. The cells that invaded the Matrigel™ and attached to the lower surface of the filter were fixed with methanol and stained with Giemza solution (Sigma, St. Louis, Mo.). The number of cells attached to the lower surface of the polycarbonate filter was counted under a light microscope at 200× magnification. Five fields of adherent cells were randomly counted in each well and the results were numerically averaged. […]

For the substance “HLJ1-D: siRNA specific for HLJ1, sequence AAACGCTGATGGAAGGAGTTA (other strand not given here)”, the “reduction of HLJ1 expression” value in the data set on HLJ1 worked out at 64%. Moreover, the “ability of PCY3 cells to invade through Matrigel, compared to PCC2 cells” value in the data set with PCY3 cells is on record as 87%.
